Among the test systems are SF-268 CNS; HL-60(TB) leukemia; NCI-H522 lung; KM12 colon; MDA-MB-231 breast; UO-31 renal; EKVX NSCLC; HOP-92 NSCLC; SNB-19 CNS; T-47D breast.
Experiment in all cases: growth of human tumour cells (NCI), 48 h

Molecules are shown by their SMILES.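 Where inhibition never reached the appropriate level, the endpoint shown equals the highest concentration tested. Otherwise, values were interpolated linearly from a five-concentration, 48-hour dose response in 96-well plates. GI50 marks 50% less growth. TGI marks complete inhibition of growth.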 Some results are limits rather than exact numbers.

Take `Nc1nc(Cl)cc(Oc2ccc(Cl)cc2)n1`: the TGI in the test on SF-268 CNS was over 100 µM; with HL-60(TB) leukemia it was over 100 µM; in the test with NCI-H522 lung it was over 72.8 µM; in the test with KM12 colon, over 100 µM; in the test with MDA-MB-231 breast, over 100 µM; in the test with UO-31 renal it was over 100 µM. Further, the TGI with EKVX NSCLC, in the test with HOP-92 NSCLC, with SNB-19 CNS and in the test with T-47D breast was over 100 µM throughout.
In the case of `O=[N+]([O-])c1cc(-c2ccc([As](=O)(O)O)cc2)ccc1[As](=O)(O)O`, the TGI in the test with SF-268 CNS, in the test with HL-60(TB) leukemia, with NCI-H522 lung, in the test on KM12 colon, in the test on MDA-MB-231 breast and in the test with UO-31 renal was over 100 µM throughout. The TGI in the test with EKVX NSCLC, with HOP-92 NSCLC, in the test on SNB-19 CNS and in the test with T-47D breast was over 100 µM in each case.
Consider `CN1CN(c2ccccc2)C2(CCN(C(=O)OC(C)(C)C)CC2)C1=O`, for which the TGI in the test with SF-268 CNS, in the test on HL-60(TB) leukemia, in the test with NCI-H522 lung, in the test on KM12 colon, in the test on MDA-MB-231 breast and in the test on UO-31 renal was over 100 µM throughout. Besides, the TGI with EKVX NSCLC, in the test on HOP-92 NSCLC, with SNB-19 CNS and in the test on T-47D breast was over 100 µM throughout.
With `COc1cc(/C=[N+](\[O-])c2ccccc2Cl)ccc1OC(=S)S`, the TGI was over 100 µM in the test with SF-268 CNS; 47.6 µM in the test on HL-60(TB) leukemia; over 100 µM in the test on NCI-H522 lung; 41.8 µM in the test with KM12 colon; over 100 µM in the test on MDA-MB-231 breast; over 100 µM in the test with UO-31 renal. The TGI in the test on EKVX NSCLC was over 100 µM; with HOP-92 NSCLC, 49.2 µM; in the test with SNB-19 CNS it was over 100 µM; with T-47D breast it was 53.4 µM.
Regarding `Cc1ccnc2[nH]c(-c3ccc(Cl)cc3)cc(=O)c12`, the TGI in the test with SF-268 CNS was over 100 µM; with HL-60(TB) leukemia, 4.74 µM; with NCI-H522 lung it was over 100 µM; in the test on KM12 colon, over 100 µM; in the test with MDA-MB-231 breast it was over 100 µM; with UO-31 renal, over 100 µM. Further, the TGI in the test with EKVX NSCLC, with HOP-92 NSCLC, in the test on SNB-19 CNS and in the test on T-47D breast was over 100 µM throughout.
Regarding `COc1cc([C@@H]2c3cc4c(cc3[C@H](OC3OC5COC(C(C)C)OC5C(O)C3O)C3COC(=O)[C@@H]32)OCO4)cc(OC)c1OC` (some centres not stated), the TGI in the test on SF-268 CNS was over 100 µM; in the test with HL-60(TB) leukemia, over 25.8 µM; with NCI-H522 lung it was 17.7 µM; in the test on KM12 colon, 18 µM; in the test with MDA-MB-231 breast, 19.2 µM; in the test on UO-31 renal, 42.1 µM. Also, the TGI with EKVX NSCLC was over 100 µM; in the test on HOP-92 NSCLC, 24.6 µM; in the test with SNB-19 CNS, over 40.6 µM; with T-47D breast, 65.5 µM.
Take `C1=Nc2ccc(cc2)-c2ccc(cc2)N=Cc2ccccc2OCc2cccc(n2)COc2ccccc21`: the TGI is over 100 µM with SF-268 CNS; over 100 µM in the test with HL-60(TB) leukemia; over 96.5 µM in the test on NCI-H522 lung; over 100 µM in the test on KM12 colon; over 66.3 µM with MDA-MB-231 breast; over 100 µM in the test with UO-31 renal. In addition, the TGI in the test with EKVX NSCLC is over 100 µM; with HOP-92 NSCLC, over 60 µM; in the test with SNB-19 CNS, 46.4 µM; in the test with T-47D breast it was over 100 µM.
For the compound `O=C1/C(=C/Cc2ccco2)N=C(c2ccccc2)N1c1nc2ccc(Sc3ccccc3)cc2[nH]1`, the TGI in the test with SF-268 CNS is 58.1 µM; in the test on HL-60(TB) leukemia it was 45.4 µM; in the test with KM12 colon, 45.5 µM; in the test on MDA-MB-231 breast it was 57 µM; with UO-31 renal, 50.6 µM; with EKVX NSCLC, over 100 µM. For the same compound, the TGI in the test with HOP-92 NSCLC is 67.6 µM; with SNB-19 CNS it was 86.7 µM; with T-47D breast it was over 100 µM.
On to `Cc1ccc(S(=O)(=O)N(CC(O)COc2ccccc2)c2ccccc2Cl)cc1` (configuration not stated), for which the TGI came out at 35.7 µM in the test with SF-268 CNS; 67.8 µM in the test with HL-60(TB) leukemia; 25.1 µM in the test on NCI-H522 lung; 30.5 µM in the test on KM12 colon; 29.3 µM in the test on MDA-MB-231 breast; 24.8 µM with UO-31 renal. For the same compound, the TGI in the test with EKVX NSCLC was 31.8 µM; in the test with SNB-19 CNS, 39.5 µM; in the test with T-47D breast, 69.7 µM.
With `COC(=O)c1cc(NC(=O)Cn2c3ccccc3c3ccccc32)cn1C`, the TGI in the test on SF-268 CNS was over 100 µM; in the test on HL-60(TB) leukemia, over 100 µM; with NCI-H522 lung, over 100 µM; with KM12 colon, over 100 µM; with MDA-MB-231 breast, 48.8 µM; in the test with UO-31 renal it was over 100 µM. The TGI with EKVX NSCLC, in the test on SNB-19 CNS and in the test on T-47D breast was over 100 µM throughout.
`CC(=O)OC1CC[C@@]2(C)C(=CC[C@@H]3[C@@H]2CC[C@]2(C)Nc4c(cnn4-c4ccc(F)cc4)C[C@@H]32)C1` (some centres not stated): the TGI is over 100 µM in the test on SF-268 CNS; over 26 µM in the test with HL-60(TB) leukemia; over 100 µM in the test on NCI-H522 lung; over 84.1 µM with KM12 colon; over 100 µM with MDA-MB-231 breast; over 100 µM in the test with UO-31 renal. Also, the TGI in the test on EKVX NSCLC, in the test with HOP-92 NSCLC, in the test on SNB-19 CNS and in the test with T-47D breast was over 100 µM in each case.
Take `O=C(/C=C/c1cc2ccccc2[nH]c1=O)c1ccc(O)cc1`: the GI50 in the test on SF-268 CNS was 3.76 µM; with HL-60(TB) leukemia, 2.66 µM; in the test on NCI-H522 lung, 1.7 µM; in the test with KM12 colon, 1.89 µM; with MDA-MB-231 breast it was 3.51 µM; in the test with UO-31 renal, 4.38 µM. The GI50 with EKVX NSCLC was 13.4 µM; in the test with HOP-92 NSCLC it was 3.26 µM; in the test with SNB-19 CNS, 4.59 µM; with T-47D breast it was 4.19 µM. Also, the TGI with SF-268 CNS came out at 23.3 µM; with HL-60(TB) leukemia, 6.86 µM; with NCI-H522 lung, 3.29 µM; in the test on KM12 colon it was 4.5 µM; in the test with MDA-MB-231 breast it was 15 µM; with UO-31 renal, 26.7 µM. Besides, the TGI was found to be 27.2 µM with EKVX NSCLC, 23.2 µM with HOP-92 NSCLC, 18 µM in the test on SNB-19 CNS and 20.4 µM with T-47D breast.
For the compound `COc1cc2c(cc1OC)C/C(=N\O)c1cc(OC)c(OC)cc1/C=C\2`, the TGI in the test on SF-268 CNS is over 100 µM; in the test on HL-60(TB) leukemia, 19.5 µM; in the test on NCI-H522 lung, 4.8 µM; in the test with KM12 colon, 95.8 µM; in the test with MDA-MB-231 breast it was over 29.3 µM; with UO-31 renal it was over 69.7 µM. Also, the TGI was over 100 µM with EKVX NSCLC, over 100 µM with HOP-92 NSCLC, over 65.5 µM with SNB-19 CNS and over 84.3 µM in the test with T-47D breast.

The values above are taken from PubChem BioAssay (NCI).
